The values that follow come from patent publication US8518419B2, “Method of treating diabetes” (Garvan Institute of Medical Research, priority 2006, dated 2013).

Test [1] has as its system Min6 cells. In words: Gene expression in Min6 cells by real-time PCR. Type of test: cell-based, mouse. On the procedure:
Human pancreatic islets were purified from seven normoglycemic subjects using the modified Ricordi method (Ricordi et al., 1988) as previously described (Gunton et al., 2005). The subjects are described in (Gunton et al., 2005), and were matched for age and body-mass-index. Gene expression was measured by real-time-PCR and was performed in a two-step reaction using the Invitrogen RT-for-PCR kit. The second step was performed in a fluorescent temperature cycler (ABI-Prism 7700 Sequence Detection System, Applied Biosystems) with LightCycler-RNA Master SYBR-Green-I (Roche, Mannheim, Germany) and specific primers for each of the genes (sequences available on request). Every plate included a control gene (TATA-box binding protein/TBP) for every subject. Results were analysed by unpaired t-test.
In separate experiments, treated cells were lysed, and RNA isolated for real-time-PCR.
Following treatment with HIF-1α RNAi, the present inventors measured expression of genes in the maturity onset diabetes of the young (MODY) family, insulin-signalling and glucose-uptake and glycolytic genes by real-time PCR. […] In the insulin signaling pathway, HIF-1α knockdown decreased insulin-receptor substrate (IRS)-2 mRNA (FIG. 3E).
Min6 cells were treated with DFO at the doses indicated for 4 hours.
(In general: In qPCR the cycle at which signal appears reflects the starting amount.)

For test [2], the system named is Min6 cells. Put plainly: Glucose-stimulated insulin secretion (GSIS) in Min6 cells. The class given is cell-based, mouse. As to conditions: DFO treatment.
The next test concerns diabetic SCID mice. Put plainly: Minimal mass human islet transplantation into diabetic SCID mice. As to conditions: human islets. The class given is in vivo, mouse. The protocol: Human pancreatic islets were isolated from normal glucose tolerant donors as previously described (Gunton et al., 2005). Islets were transplanted under the left kidney capsule of SCID mice which had been rendered diabetic by injection of Alloxan at 95 mg/kg intravenously. Islets were transplanted in adequate mass (2000 IEQ per mouse), or minimal mass (600 IEQ per mouse). In each of the islet isolations, 2000 control-treated IEQ per mouse was adequate to cure diabetes. As expected, 600 control-treated IEQ per mouse was not adequate to control glucose at day 28 post-transplant in any mouse. […]

For test [3], the system named is Min6 cells. Put plainly: Measurement of intracellular ATP concentrations. The class given is cell-based, mouse. Conditions: DFO treatment. The protocol:
ATP concentrations were measured in islets and in Min6 cells following exposure to low (1 mM) or high glucose (25 mM) for 30 minutes. At the 30 minute timepoint, cells were placed on ice, washed twice in ice-cold PBS and lysed and ATP was measured using a kit purchased from Roche, according to the manufacturer's instructions.

A further test deals with diabetic recipient mouse. Put plainly: Mouse islet transplantation into streptozotocin-diabetic mice. Type of test: in vivo. Conditions: mouse islets cultured with 125 μM DFO 2 hours before transplantation, 1 donor:1 recipient, followed 28 days. The protocol: Islets were isolated from control mice and cultured with either control media or control media plus 125 μM DFO under normoxic conditions or in control media under hypoxic conditions (5% O2) for 2 hours before transplantation. All the islets from 1 donor mouse were transplanted into 1 recipient mouse which had been rendered diabetic (random glucose>22 mM) by streptozotocin treatment.
Transplant recipients were followed for 28 days, at which time nephrectomy was performed to confirm recurrence of diabetes.

For another test, the system named is human islets. In words: Insulin release of human islets at low and high glucose. Type of test: cell-based. Conditions: DFO 4 hours, low (5 mM) and high (11 mM) glucose. The protocol: The present inventors were interested to determine whether DFO was beneficial for function of human islets. Islets were isolated from people with normal glucose tolerance and treated with control media or media supplemented with DFO for 4 hours, and insulin release subsequently measured at low (5 mM) and high (11 mM) glucose concentrations.

Entries after “also recorded” stand apart in the source; their conditions may differ.

`CC(=O)N(O)CCCCCNC(=O)CCC(=O)N(O)CCCCCNC(=O)CCC(=O)N(O)CCCCCN` [DFO, desferrioxamine]: in the test with Min6 cells [1] (DFO 4 hours), the “expression of ARNT” value is reported as “did not alter expression of the house-keeping genes TATA-box binding protein (TBP) or transthyretin, or (B) increase expression of ARNT”; the “expression of housekeeping genes TATA-box binding protein (TBP) and transthyretin” value is on record as “did not increase expression; also recorded: did not alter expression”; the “expression of mRNAs for Akt2, GLUT1, GLUT2, HNF4α, IRS2 and phosphoglucomutase (PGM)” value is recorded as “dose-dependently increased expression; also recorded: significantly increased expression”. The “expression of HNF1α, HNF1β and insulin receptor” value with Min6 cells [1] (DFO 4 hours (data not shown)) was “did not alter”. Further, the “HIF-1α mRNA expression” value with Min6 cells [1] (highest dose of DFO, 4 hours) is recorded as “small but significant increase; also recorded: showed increased expression”. In the test on Min6 cells [2], the “glucose stimulated insulin secretion (GSIS)” value is given as “substantial increase in GSIS”. The “success rate following transplant of 600 IEQ” value in the test on diabetic SCID mice (DFO 125 μM for 4 hours pre-transplantation, day 28) is 75%. In the test with diabetic SCID mice (DFO 125 μmol/L prior to transplantation, n=8), the “cure of diabetes following transplantation of 600 IEQ” value was 75%. The ATP generation entry with Min6 cells [3] is listed as “increased ATP generation; also recorded: increased ATP concentrations”. In addition, the “average glucose after transplantation” value in the test on diabetic recipient mouse was determined as 11.4 mM. Moreover, the “insulin release (GSIS) of human islets” value in the test on human islets is on record as “markedly increased; also recorded: markedly improved GSIS”.
